Results: US9458187B2, “Methods for treatment of inflammatory conditions using S-[4-(3-fleuro-3-methylbutyryloxy)but-2-ynyl]6α, 9α-difluoro-17α-(furan-2-yl) carbonyloxy-11β-hydroxy-16α-methyl-3-oxoandrosta-1,4-diene-17β-carbothioate” (Sun Pharma Advanced Research Company Limited, priority 2013, dated 2016)

Legend:
[1] = tested on: Sephadex-induced lung edema; assay: Sephadex-induced lung edema; format: in vivo, SD rats; conditions: Rattus norvegicus; i.t., 24 hrs and 2 hrs prior to Sephadex; read-out: ED50 Lung edema inhibition
Description: (§1) Sephadex® G-200 was prepared in sterile saline (10 mg/ml) and allowed to swell for at least 3 days at room temperature. Test compounds were administered intratracheally at 24 hrs and 2 hrs prior to intratracheal administration of Sephadex® (5 mg/kg) under light ether anesthesia. Vehicle control animals were administered vehicle instead of Sephadex®. At 24 hr after Sephadex® instillation, lung and thymus were excised from individual animals and weighed. Wet weights of lungs and thymus were corrected for 100 g of initial body weight. The percentage increase in lung weight caused by Sephadex® and its inhibitions by the compounds, were calculated. The percentage inhibitions of thymus compared to vehicle control group were also calculated

[2] = Sephadex-induced lung edema; format: in vivo, SD rats; conditions: Sprague-Dawley, rat, thymus, other: intratracheal; i.t., 24 hrs and 2 hrs prior to Sephadex; read-out: ED50 Thymus involution
Description: as §1

cotton pellet granuloma = assay: Cotton pellet granuloma test; format: in vivo, SD rats
Description: SD rats were used for assessing anti-inflammatory activity of test compound using cotton pellet granuloma method. Sterilized cotton pellets weighing 20 mg were prepared. Test compounds were dissolved in acetone so as to get the required quantity for each cotton pellet in 500 μl. Different pellets were impregnated with 500 μl of acetone to contain required quantity of test compounds and allowed to dry. Vehicle control pellets were impregnated with 500 μl acetone.
Rats were made into different groups. Two cotton pellets were surgically implanted into the scapular region of each rat. On sixth day of such implantation, pellets along with granuloma were taken out. Thymus gland was also separated from each animal and weighed. The pellets with granuloma were dried for 20 hrs at 60° C. and weighed. Mean weights of dry granuloma and thymus, body weight gain/100 g body weights were calculated.

[3] = tested on: liver glycogen deposition; assay: Liver glycogen deposition; format: in vivo, Male Sprague Dawley rats; conditions: 3 mg/kg intratracheal, 2 doses 24 hrs apart, adrenalectomized rats
Description: Male Sprague Dawley rats, weighing 190-220 g were bilaterally adrenalectomized and maintained on 0.9% saline solution throughout the experiment. On day 5th and 6th of adrenalectomy, animals were made into different groups, test compounds prepared in cold saline (sonicated for 30 min) were instilled intratracheally 2 doses @3 mg/kg, 24 hrs apart. At 15 hrs after the last treatment, animals were sacrificed and livers were excised and weighed. The glycogen content of the livers was determined by anthrone method. Briefly, a weighed quantity of liver tissue was homogenized with 5% trichloroacetic acid, supernatant mixed with ethanol and kept overnight for precipitation. The glycogen thus extracted was estimated as glucose generated after acid hydrolysis by addition of anthrone reagent at 620 nm. Glycogen content was expressed as mg/100 g liver.

[4] = biological target: T1, Human Glucocorticoid receptor (Homo sapiens, UniProt P04150); assay: Human glucocorticoid receptor binding (in vitro), [3H]dexamethasone radioligand
T1 construct: expressed in transfected cells; host or cells: human HeLa cells
T1 sequence (P04150 1-777): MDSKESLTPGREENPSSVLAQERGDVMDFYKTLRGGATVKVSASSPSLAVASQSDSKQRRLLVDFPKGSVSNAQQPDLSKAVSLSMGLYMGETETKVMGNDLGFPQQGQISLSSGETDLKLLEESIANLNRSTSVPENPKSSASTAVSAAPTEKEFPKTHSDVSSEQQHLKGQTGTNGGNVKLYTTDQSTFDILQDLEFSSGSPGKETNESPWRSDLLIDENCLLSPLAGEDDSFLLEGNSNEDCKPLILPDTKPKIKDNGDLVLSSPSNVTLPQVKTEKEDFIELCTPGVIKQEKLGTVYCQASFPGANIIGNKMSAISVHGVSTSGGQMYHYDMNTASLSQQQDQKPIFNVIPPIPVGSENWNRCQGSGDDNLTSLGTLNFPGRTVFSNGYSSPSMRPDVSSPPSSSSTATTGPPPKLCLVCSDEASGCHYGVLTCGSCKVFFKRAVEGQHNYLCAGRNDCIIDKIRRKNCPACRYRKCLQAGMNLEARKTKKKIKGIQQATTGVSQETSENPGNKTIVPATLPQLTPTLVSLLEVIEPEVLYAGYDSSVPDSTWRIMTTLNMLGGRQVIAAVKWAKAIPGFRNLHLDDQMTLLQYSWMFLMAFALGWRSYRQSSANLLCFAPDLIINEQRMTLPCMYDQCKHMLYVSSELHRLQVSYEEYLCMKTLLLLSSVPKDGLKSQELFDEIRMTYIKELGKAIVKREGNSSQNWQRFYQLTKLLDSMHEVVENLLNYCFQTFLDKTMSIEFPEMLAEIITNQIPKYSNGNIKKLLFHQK
Description: The activity of test compounds on glucocorticoid receptor was assessed using radioligand binding assays.
The % inhibition was evaluated using a single concentration of test compound and the corresponding radiolabeled ligand. Results are presented as the percent inhibition of specific binding. The values are average of duplicate determinations for each concentration.

Q: For `C[C@@H]1CC2C3C[C@H](F)C4=CC(=O)C=C[C@]4(C)[C@@]3(F)[C@@H](O)C[C@]2(C)[C@@]1(OC(=O)c1ccco1)C(=O)SCC#CCOC(=O)CC(C)(C)F` (stereo partly drawn) [Formula I, S-[4-(3-Fluoro-3-methylbutyryloxy)but-2-ynyl]6α,9α-difluoro-17α-(furan-2-yl)carbonyloxy-11β-hydroxy-16α-methyl-3-oxoandrosta-1,4-diene-17β-carbothioate], which ED50 [1] is on record?
A: 0.094 mg/kg

Q: And the ED50 at 24 h [2]?
A: 8.7 mg/kg

Q: What about the “Mean % Inhibition of Granuloma A” value (cotton pellet granuloma; 100 mcg/pellet) of the same compound?
A: 58.13%

Q: And the “Thymus wt. (% Decrease) B” value (cotton pellet granuloma; 100 mcg/pellet)?
A: 4.67%

Q: What about the “thymus involution and body weight gain (systemic side effect markers)” value (cotton pellet granuloma; even at 100 mcg per pellet) of the same compound?
A: insignificant

Q: And the Glycogen content [3]?
A: 10.68 mg/100 g liver

Q: What about the IC50 [4] of the same compound?
A: 2.3 nM

Q: What about the Ki [4] of the same compound?
A: 1.24 nM

Q: And the “potency and selectivity towards human glucocorticoid receptor” value ([4]; compared with aldosterone, estrogen, progesterone and testosterone receptors)?
A: good potency and selectivity
